Test results from patent publication US20240075050A1, “Methods and Compositions for Treating Leucine Rich Repeat Kinase 2 (LRRK2)-Associated Disorder or Condition” (University of Connecticut, priority 2022, published 2024).

Test system: CD68
Experiment: LPS-induced neuroinflammation in mice, CD68 levels
Assay type: in vivo, mouse
Conditions: 21 days; for LPS-induced CD68 levels in SNpc: AICAr 2.4 μg/day/animal, immunostaining
Method: FIGS. 9A-9F depict that AICAr rescues LPS-induced DA neurodegeneration and inflammation in mice, which acts through LRRK2. FIG. 9A depicts representative images of DAneuron staining. WT and LRRK-KO mice were injected with 1 ul LPS (5 ug/animal) or phosphate buffered saline (PBS) into the substantia nigra pars compacta (SNpc) and administrated with AICAr (2.4 μg/day/animal) or saline to same stereotaxic coordinates using osmotic pumps. After 21 days of injection, DA neurons were stained by anti-tyrosine hydroxylase (TH) antibody. Scale bars, […]. FIG. 9B depicts quantification of TH positive neurons in substantia nigra pars compacta (SNpc) using an unbiased stereological method with stereo investigator software from 7-8 animals per group. FIG. 9C depicts quantification of Niss1-positive neurons in SNpc using an unbiased stereological method with stereo investigator software from 7-8 animals per group. FIG. 9D depicts the CD68 levels in SNpc tissues near the needle sites analyzed by immunostaining. Scale bars, 100 μm. FIG. 9E depicts the CD68 levels in WT and LRRK-KO mice injected with 1 μl LPS (5 μg/animal) or PBS into striatum followed by administration of AICAr (2.4 μg/day/animal) or saline to same stereotaxic coordinates using osmotic pumps. After 21 days of injection, LRRK2 and CD68 expression in striatal tissues near the needle sites was analyzed by Western blot. FIG. 9F depicts quantification of images from (FIG. 9E) using ImageJ software, n=3 animals per group. Data information: Data are mean±SEM. ***p<0.001, ****p<0.0001 by one-way ANOVA followed by a Tukey's post hoc test. ns: not statistically significant.
Stereotaxic intracranial injection. […]
Immunohistochemistry. […] After antigen retrieval with 10 mM sodium citrate (pH 6.0) and 0.05% Tween-20 at 37° C. for 30 minutes, brain sections were washed in PBS for three times, permeabilized with 0.3% Triton X-100 in PBS, blocked with 10% goat serum in PBS, incubated with anti-tyrosine hydroxylase (TH) antibody overnight at 4° C., and then detected with Biotin-SP goat anti-rabbit IgG antibody at room temperature for 2 hours. […]

NC(=O)c1ncn([C@@H]2O[C@H](CO)[C@@H](O)[C@H]2O)c1N [AICAr, 5-aminoimidazole-4-carboxamide riboside] was tested, and the “LPS-induced CD68 levels in SNpc” value (LRRK2 KO mice) was “did not significantly rescue”, the “CD68 levels stimulated by LPS in striatum” value (WT mice, AICAr 2.4 μg/day/animal into striatum, Western blot) was “significantly reduced” and the “LPS-induced CD68 levels in SNpc” value (WT mice) was “significantly reduced”.
